Calls of active or inactive are those of the source. No cut-off for these calls is given here.
Experiments:
[1] = target: Melanin-concentrating hormone receptor 1 (Homo sapiens, UniProt Q99705); assay: Displacement of [125I][Phe13, Tyr19]MCH from human recombinant MCHR1 expressed in CHO cells; type: cell-based
Mus musculus [2] = assay: Reduction of cumulative food intake in over-night fasted mouse at 30 mg/kg, ip after 3 hrs relative to control; type: functional; parameters: scale not given: the % may be the effect or the level left; details: route intraperitoneal
[3] = target: 5-hydroxytryptamine receptor 2A (Homo sapiens, UniProt P28223); assay: Binding affinity to 5HT2A receptor
[4] = target: T1, 5-hydroxytryptamine receptor 2C (Homo sapiens, UniProt P28335); assay: Binding affinity to 5HT2C receptor
T1 sequence (P28335 whole entry): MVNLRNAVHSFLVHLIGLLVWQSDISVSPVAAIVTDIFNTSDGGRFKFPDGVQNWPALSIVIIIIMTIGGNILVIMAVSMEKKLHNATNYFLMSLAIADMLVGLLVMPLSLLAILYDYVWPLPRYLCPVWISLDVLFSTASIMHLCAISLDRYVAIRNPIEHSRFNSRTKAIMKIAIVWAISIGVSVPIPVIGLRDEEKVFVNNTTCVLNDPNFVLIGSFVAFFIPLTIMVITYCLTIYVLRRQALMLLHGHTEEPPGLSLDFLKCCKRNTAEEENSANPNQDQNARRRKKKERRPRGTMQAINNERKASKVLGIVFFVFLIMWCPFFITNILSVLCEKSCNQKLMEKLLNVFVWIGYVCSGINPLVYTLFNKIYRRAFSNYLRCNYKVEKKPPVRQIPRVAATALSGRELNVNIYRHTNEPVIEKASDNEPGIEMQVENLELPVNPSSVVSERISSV

[5] = target: Melanin-concentrating hormone receptor 2 (Homo sapiens, UniProt Q969V1); assay: Binding affinity to MCHR2
[6] = Binding affinity to L-verapamil site of calcium channel; parameters: species or system Homo sapiens
[7] = Permeability across human Caco-2 cell membrane; type: ADME, cell-based; details: read-out: permeability
Mus musculus [8] = assay: Antidepressant effect in mouse at 30 mg/kg, ip assessed as reduction in immobility duration after 30 mins by forced swimming test relative to control; type: functional; parameters: scale not given: the % may be the effect or the level left; details: route intraperitoneal
hERG (KCNH2) = hERG (KCNH2) (Homo sapiens, UniProt Q12809); assay: Inhibition of hERG-mediated current amplitude at 1 uM; type: toxicity
Mus musculus [9] = assay: Toxicity in mouse at 10 to 100 mg/kg, ip by Irwins method; type: organism-based; parameters: dose 10-100 mg/kg, route intraperitoneal; details: in vivo
[10] = target: Muscarinic acetylcholine receptor M4 (Homo sapiens) (UniProt P08173); assay: Binding affinity to muscarinic M4 receptor
Mus musculus [11] = assay: Reduction of cumulative food intake in over-night fasted mouse at 10 mg/kg, ip after 3 hrs relative to control; type: functional, organism-based; parameters: dose 10 mg/kg
Mus musculus [12] = assay: Antidepressant effect in mouse at 10 mg/kg, ip assessed as reduction in immobility duration after 30 mins by forced swimming test relative to control; type: functional; parameters: scale not given: the % may be the effect or the level left; details: route intraperitoneal

Sequence of Melanin-concentrating hormone receptor 1 (Q99705 whole entry): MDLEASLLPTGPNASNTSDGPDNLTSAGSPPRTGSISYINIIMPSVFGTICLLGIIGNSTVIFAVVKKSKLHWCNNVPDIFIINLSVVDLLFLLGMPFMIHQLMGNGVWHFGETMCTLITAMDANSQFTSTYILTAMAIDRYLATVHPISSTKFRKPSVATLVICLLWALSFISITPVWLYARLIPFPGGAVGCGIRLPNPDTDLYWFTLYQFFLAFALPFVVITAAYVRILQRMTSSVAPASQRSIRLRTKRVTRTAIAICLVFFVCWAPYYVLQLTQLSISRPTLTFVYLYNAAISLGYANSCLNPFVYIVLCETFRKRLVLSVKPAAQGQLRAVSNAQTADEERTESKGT
Sequence of 5-hydroxytryptamine receptor 2A (P28223 whole entry): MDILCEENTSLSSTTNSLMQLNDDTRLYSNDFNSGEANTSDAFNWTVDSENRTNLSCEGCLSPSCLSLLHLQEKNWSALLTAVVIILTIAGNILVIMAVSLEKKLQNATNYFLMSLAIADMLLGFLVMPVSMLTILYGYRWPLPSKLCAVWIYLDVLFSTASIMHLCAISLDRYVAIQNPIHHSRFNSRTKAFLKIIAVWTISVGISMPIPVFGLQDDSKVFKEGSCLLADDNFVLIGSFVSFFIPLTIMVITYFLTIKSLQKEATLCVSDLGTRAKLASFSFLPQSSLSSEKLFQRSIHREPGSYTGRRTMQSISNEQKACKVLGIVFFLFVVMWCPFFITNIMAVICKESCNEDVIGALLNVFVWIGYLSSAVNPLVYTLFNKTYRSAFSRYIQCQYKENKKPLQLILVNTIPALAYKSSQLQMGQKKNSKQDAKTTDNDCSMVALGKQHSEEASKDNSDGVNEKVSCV
Sequence of Melanin-concentrating hormone receptor 2 (Q969V1 whole entry): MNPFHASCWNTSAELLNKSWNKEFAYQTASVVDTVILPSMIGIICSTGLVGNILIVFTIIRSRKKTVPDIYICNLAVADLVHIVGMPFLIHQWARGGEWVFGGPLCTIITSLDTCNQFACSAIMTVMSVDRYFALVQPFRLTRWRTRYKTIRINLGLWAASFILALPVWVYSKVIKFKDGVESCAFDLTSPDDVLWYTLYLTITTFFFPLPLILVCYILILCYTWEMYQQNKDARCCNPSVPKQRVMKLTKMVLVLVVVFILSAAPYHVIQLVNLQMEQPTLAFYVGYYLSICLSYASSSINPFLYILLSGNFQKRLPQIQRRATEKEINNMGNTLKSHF
Sequence of hERG (KCNH2) (Q12809 whole entry): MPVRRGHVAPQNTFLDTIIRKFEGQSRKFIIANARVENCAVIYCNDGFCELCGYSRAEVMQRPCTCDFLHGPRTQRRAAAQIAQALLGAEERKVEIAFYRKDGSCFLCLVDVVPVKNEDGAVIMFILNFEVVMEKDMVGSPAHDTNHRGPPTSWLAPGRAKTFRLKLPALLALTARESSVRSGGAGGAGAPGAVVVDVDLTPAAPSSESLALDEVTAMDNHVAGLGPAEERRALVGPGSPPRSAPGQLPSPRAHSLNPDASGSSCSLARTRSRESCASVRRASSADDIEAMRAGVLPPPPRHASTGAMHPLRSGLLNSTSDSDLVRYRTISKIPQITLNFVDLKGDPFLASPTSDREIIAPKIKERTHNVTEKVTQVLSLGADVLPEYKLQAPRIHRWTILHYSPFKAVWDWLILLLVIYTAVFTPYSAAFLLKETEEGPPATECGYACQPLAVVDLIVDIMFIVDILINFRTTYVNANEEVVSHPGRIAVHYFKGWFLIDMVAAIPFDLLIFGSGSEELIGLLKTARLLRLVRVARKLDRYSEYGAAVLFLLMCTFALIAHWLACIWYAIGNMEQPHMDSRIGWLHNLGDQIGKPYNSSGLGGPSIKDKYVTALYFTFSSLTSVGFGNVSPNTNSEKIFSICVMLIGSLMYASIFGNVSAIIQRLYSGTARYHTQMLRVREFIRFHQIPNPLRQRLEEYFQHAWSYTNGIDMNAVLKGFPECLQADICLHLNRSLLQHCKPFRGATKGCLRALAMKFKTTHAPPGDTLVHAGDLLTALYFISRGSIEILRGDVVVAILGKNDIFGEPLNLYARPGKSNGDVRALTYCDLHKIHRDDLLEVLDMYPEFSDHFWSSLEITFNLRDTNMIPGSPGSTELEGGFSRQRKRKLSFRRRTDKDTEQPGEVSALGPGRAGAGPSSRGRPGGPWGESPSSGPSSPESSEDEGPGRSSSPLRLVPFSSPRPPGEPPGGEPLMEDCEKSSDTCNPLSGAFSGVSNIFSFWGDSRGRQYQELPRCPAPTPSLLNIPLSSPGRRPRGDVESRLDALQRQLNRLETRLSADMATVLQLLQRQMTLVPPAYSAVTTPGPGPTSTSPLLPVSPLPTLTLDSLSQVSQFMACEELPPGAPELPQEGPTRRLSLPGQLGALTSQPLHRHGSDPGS

SMILES	Ki [1] [nM]	also measured
COc1cc(N2C(=O)CN(c3ccc(Oc4ccccc4)cc3)C2=O)ccc1OCCN1CCCC1	365	
CC(=O)N1CCN(Cc2ccc(/C=C3\NC(=O)N(c4ccc(Oc5ccccc5)cc4)C3=O)cc2)CC1	2060	
O=C1N/C(=C\c2ccc(CN3CCC(O)C3)cc2)C(=O)N1c1ccc(Oc2ccccc2)cc1 (racemic)	176	Activity (Mus musculus [2]): 47%
CN(C)CCNCc1ccc(/C=C2\NC(=O)N(c3ccc(Oc4ccccc4)cc3)C2=O)cc1	707	
O=C1N/C(=C\c2ccc(CNC3CCCC3)cc2)C(=O)N1c1ccc(Oc2ccccc2)cc1	> 5000	
COc1cc(NC(=S)Nc2ccc(Oc3ccccc3)cc2)ccc1OCCN1CCCC1	1090	
COc1cc(N2CC(=O)N(c3ccc(-c4ccccc4)cc3)C2=O)ccc1OCCN1CCCC1	415	
O=C1N/C(=C\c2ccc(CN3CCCCCC3)cc2)C(=O)N1c1ccc(Oc2ccccc2)cc1	357	
COc1cc(NC(=O)Nc2ccc(-c3ccccc3)cc2)ccc1OCCN1CCCC1	260	
CN(C)Cc1ccc(/C=C2\NC(=O)N(c3ccc(Oc4ccccc4)cc3)C2=O)cc1	341	
COc1cc(N2C(=O)CN(c3ccc(-c4ccccc4)cc3)C2=O)ccc1OCCN1CCCC1	> 5000	
O=C1N/C(=C\c2ccc(CN3CCCC3)cc2)C(=O)N1c1ccc(Oc2ccccc2)cc1	220	Ki [3]: > 5000 nM; Ki [4]: > 10000 nM; Ki [5]: > 10000 nM; Ki [6]: 330 nM; Papp [7]: > 6 ×10⁻⁶ cm/s; Activity (Mus musculus [2]): 41%; Activity (Mus musculus [8]): -57%; inhibition at 1 µM (hERG (KCNH2)): 73%; Activity (Mus musculus [9]): Non-toxic
COc1cc(NC(=O)Nc2ccc(Oc3ccccc3)cc2)ccc1OCCN1CCCC1	101	
COc1cc(N2CC(=O)N(c3ccc(Oc4ccccc4)cc3)C2=O)ccc1OCCN1CCCC1	164	Ki [3]: 330 nM; Ki [4]: 880 nM; Activity (Mus musculus [2]): 51%; Ki [10]: 370 nM
O=C1N/C(=C\c2ccc(CN3CCOCC3)cc2)C(=O)N1c1ccc(Oc2ccccc2)cc1	> 5000	
O=C1N/C(=C\c2ccc(CN3CCCCC3)cc2)C(=O)N1c1ccc(Oc2ccccc2)cc1	> 5000	
CC(C)CC(N(C)C)C1(c2ccc(Cl)cc2)CCC1 (centres undefined)		Activity (Mus musculus [11]): Active
COc1cc(NC(=O)c2ccc(-c3ccccc3)cc2)ccc1OCCN1CCCC1	25	
CN(C)CCCN1c2ccccc2CCc2ccccc21 [IMIPRAMINE]		Activity (Mus musculus [12]): -58%
CN(C)CC1CCc2cc(NC(=O)c3ccc(-c4ccc(F)cc4)cc3)ccc2C1 (centres undefined)	38	
O=C1N/C(=C\c2ccc(CN3CCN(Cc4ccccc4)CC3)cc2)C(=O)N1c1ccc(Oc2ccccc2)cc1	> 5000	
O=C1N/C(=C\c2ccc(CNCc3ccccc3)cc2)C(=O)N1c1ccc(Oc2ccccc2)cc1	> 5000	
COc1cc(NC(=O)c2ccc(Oc3ccccc3)cc2)ccc1OCCN1CCCC1	82	
O=C1N/C(=C\c2ccc(CN3CCN(c4ccccc4)CC3)cc2)C(=O)N1c1ccc(Oc2ccccc2)cc1	> 5000	
COc1cc(Nc2nc(-c3ccc(Oc4ccccc4)cc3)cs2)ccc1OCCN1CCCC1	1000	

Source: ChEMBL document CHEMBL1139948, “Design and synthesis of novel hydantoin-containing melanin-concentrating hormone receptor antagonists” (Bioorg Med Chem Lett, 2007)
